# Starred links: 1 amine or outer side, 2 acyl side, 3 side chain; linkers in the order of their positions; H or OH if unused. Positions of bridges follow the written chain, without caps; N, C: chain ends. Non-standard residues stand in square brackets, D forms with d. Residues, ends and D or L forms follow the SMILES beside them. ξ: configuration not given here. X2 = C[C@@](CCCCC=[*:3])(N[*:1])C(=O)[*:2]; Leu(4,5-dehydro) = C=C(C)C[C@H](N)C(=O)O; Oic = O=C(O)[C@@H]1C[C@@H]2CCCC[C@@H]2N1; d(tBuAla) = CC(C)(C)C[C@@H](N)C(=O)O; dVal(3-OH) = CC(C)(O)[C@@H](N)C(=O)O; cisHyp = O=C(O)[C@@H]1C[C@H](O)CN1; tBuAla = CC(C)(C)C[C@H](N)C(=O)O; R5 = C=CCCC[C@@](C)(N)C(=O)O; X1 = O=C(CC(O)CN[*:1])[*:2]; 3Amb = NCc1cccc(C(=O)O)c1; 4Amb = NCc1ccc(C(=O)O)cc1; ξP = O=C(O)C1CCCN1
# Assays:
# [1] = Lipophilicity of peptides, logP(oct/wat); type: physicochemical
# Method: (§1) The solubilities of the synthesized compounds were determined experimentally (Supplementary Table 2). Most compounds were highly soluble at a 1 mM concentration; however, some compounds tended to form aggregates. These compounds were excluded from further studies. In addition, we experimentally determined the lipophilicity of each compound, logP(oct/wat)=log(soluteoct/solutewat ), which is the partition coefficient of a compound between aqueous (water) and lipophilic (octanol) phases (Supplementary Table 2).
# Lipophilicity of peptides. Two separate solutions were obtained: an aqueous phosphate buffer with saturated n-octanol, and an n-octanol solution with saturated phosphate buffer. Peptides were then dissolved and diluted in the phosphate buffer. Different partitions were then made with different n-octanol to water ratio before shaking for an hour at room temperature. The aqueous phase and n-octanol were allowed to equilibrate, and each phase was extracted and analyzed for peptide concentrations. The ratio of peptide concentration in n-octanol to that in water is expressed as log(P).
# [2] = biological target: EB3 interactions with IP3R3-GFP (Homo sapiens, UniProt Q9UPY8); experiment: Competitive binding: inhibition of EB3 interaction with IP3R3-GFP in vitro; type: biochemical; conditions: 250 nM
# From the text: We tested the efficacy of twenty-three compounds in inhibiting EB3 interactions with IP3R3-GFP via an in vitro approach developed by us[12],[13]. […] Guided by NMR studies, we predicted the binding pose of 109 to EB3 via AutoDock Vina[13],[24],[25].
# [3] = Aggregation / solubility at 1 mM; type: physicochemical; conditions: summary calls it solubility at 1mM
# Method: as §1
# EB3 interactions with IP3R3-GFP, sequence (Q9UPY8 whole entry): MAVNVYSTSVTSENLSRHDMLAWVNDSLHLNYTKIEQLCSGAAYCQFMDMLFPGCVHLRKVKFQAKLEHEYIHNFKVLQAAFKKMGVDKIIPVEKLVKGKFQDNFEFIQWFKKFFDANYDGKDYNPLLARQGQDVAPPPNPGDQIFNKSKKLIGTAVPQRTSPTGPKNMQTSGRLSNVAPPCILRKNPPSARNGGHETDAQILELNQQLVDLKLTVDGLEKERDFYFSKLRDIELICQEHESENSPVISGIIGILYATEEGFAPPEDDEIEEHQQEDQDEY
logD [1],inhibition at 0.25 µM [2] [%],Aggregation at 1mM [3],Compound
0.03,36,weak signal,"CC[C@H](C)[C@H](NC(=O)[C@H](NC(=O)[C@@H]1C[C@H](O)CN1C(=O)[C@H](CC(C)(C)C)NC(=O)c1cccc(CNC(=O)[C@H](NC(=O)[C@@H](N)Cc2ccccc2)C(C)(C)O)c1)C(C)(C)O)C(=O)O [compound 042, ((R)-2-((2S,4S)-1-((S)-2-(3-(((R)-2-((S)-2-amino-3-phenylpropanamido)-3-hydroxy-3-methylbutanamido)methyl)benzamido)-4,4-dimethylpentanoyl)-4-hydroxypyrrolidine-2-carboxamido)-3-hydroxy-3-methylbutanoyl)-L-isoleucine] (H-F[dVal(3-OH)][3Amb][tBuAla][cisHyp][dVal(3-OH)]I-OH)"
-0.37,70,weak signal,"C=C(C)C[C@H](NC(=O)CC(O)CNC(=O)[C@@H]1C[C@@H]2CCCC[C@@H]2N1C(=O)[C@H](CC(=C)C)NC(=O)c1ccc(CNC(=O)[C@H](NC(=O)[C@H](N)Cc2ccccc2)C(C)(C)O)cc1)C(=O)O (stereo partly drawn) [compound 105, (2S)-2-(4-((2S,3aS,7aS)-1-((S)-2-(4-(((R)-2-((R)-2-amino-3-phenylpropanamido)-3-hydroxy-3-methylbutanamido)methyl)benzamido)-4-methylpent-4-enoyl)octahydro-1H-indole-2-carboxamido)-3-hydroxybutanamido)-4-methylpent-4-enoic acid.] (H-[dF][dVal(3-OH)][4Amb][Leu(4,5-dehydro)][Oic][X1][Leu(4,5-dehydro)]-OH)"
-1,51,weak signal,"C=C(C)C[C@H](NC(=O)[C@H](CCC(=O)O)NC(=O)[C@@H](NC(=O)[C@@H](N)Cc1ccccc1)[C@@H](C)O)C(=O)N1CCC[C@H]1C(=O)N[C@H](C(=O)N[C@H](C(=O)O)[C@@H](C)CC)[C@@H](C)O [compound 019, (S)-4-((2S,3R)-2-((S)-2-amino-3-phenylpropanamido)-3-hydroxybutanamido)-5-(((S)-1-((S)-2-(((2S,3R)-1-(((1S,2S)-1-carboxy-2-methylbutyl)amino)-3-hydroxy-1-oxobutan-2-yl)carbamoyl)pyrrolidin-1-yl)-4-methyl-1-oxopent-4-en-2-yl)amino)-5-oxopentanoic acid] (H-FTE[Leu(4,5-dehydro)]PTI-OH)"
-1,45,1.39,"CC[C@@H](C)[C@H]1NC(=O)[C@H]([C@@H](C)O)NC(=O)C2CCCN2C(=O)[C@@H](CC(C)(C)C)NC(=O)[C@](C)(NC(=O)[C@@H](CCC(=O)O)NC(=O)[C@H](NC(=O)[C@H](N)Cc2ccccc2)[C@H](C)O)CCC/C=C\CCCC[C@@](C)(C(=O)N[C@@H](CCCNC(=N)N)C(=O)O)NC1=O (stereo partly drawn) [compound 028, (4R)-4-((2R,3S)-2-((R)-2-amino-3-phenylpropanamido)-3-hydroxybutanamido)-5-(((3S,6R,9S,19R,22R,Z)-6-((R)-sec-butyl)-9-(((S)-1-carboxy-4-guanidinobutyl)carbamoyl)-3-((R)-1-hydroxyethyl)-9,19-dimethyl-22-neopentyl-1,4,7,20,23-pentaoxo-2,3,4,5,6,7,8,9,10,11,12,13,16,17,18,19,20,21,22,23,25,26,27,27a-tetracosahydro-1H-pyrrolo[1,2-d][1,4,7,10,13]pentaazacyclopentacosin-19-yl)amino)-5-oxopentanoic acid] (H-[dF][dT][dE][R5][d(tBuAla)][ξP]T[dI][X2]R-OH; staple (Z) 4-9)"

# Source: PMC12627862, “Therapeutic targeting of endothelial calcium signaling accelerates the resolution of lung injury” (Signal Transduction and Targeted Therapy, 2025)
